The source of these data is patent US20180064829A1, “FLUORESCENT BISPHOSPHONATE ANALOGS” (University of Southern California, priority 2015, published 2018).

Like-named read-outs stand apart in the source and are kept apart here.

Series [1] can be described thus: UV-VIS absorption and fluorescence emission spectra. It counts as physicochemical. Conditions: 0.1M phosphate buffer (1x PBS for 7d5); ± 1 nm error. As for the experimental part: All labeled samples were dissolved in water and diluted with 0.1 M phosphate buffer or 1×PBS (for 7d5). Assuming that the labeled bisphosphonates have the same extinction coefficient (E) as the carboxylic acid of the free fluorescent label, the final concentrations for all labeled products were calculated from UV-VIS absorption spectra at λ=493 nm (ε=73000 M^−1 cm^−1 at pH 7.2) for FAM conjugates (7a1-7a3, 7b1, 7c1, 7d1-7d2, 7e1-7e2, 7f1-7f2), λ=567.5 nm (ε=114850 M^−1cm^−1 at pH 7.5) for RhR-X conjugates (7a4, 7b2, 7c2), λ=580 nm (c=72000 M^−1cm^−1 at pH 8.0) for ROX conjugates (7a5, 7b3), λ=648 nm (ε=240000 M^−1cm^−1 at pH 7.2) for AF647 conjugates (7a6, 7b4, 7d3), λ=774 nm (ε=240000 M^−1cm^−1 at pH 7.4) for 800CW conjugates (7d4), λ=644 nm (ε=271000 M^−1cm^−1 at pH 7.4, 1×PBS) for Sulfo-Cy5 conjugates (7d5).
Emission spectra for FAM and RhR-X conjugates were recorded using an excitation wavelength of 490 nm or 520 nm, respectively. Emission spectra for AF647 conjugates and Sulfo-Cy5 conjugates were recorded using an excitation wavelength of 600 nm. Emission spectra of 5(6)-ROX conjugates were recorded using an excitation wavelength of 575 nm. Emission spectra of IRDye CW800 conjugate was recorded using an excitation wavelength of 750 nm. The set-up of excitation slit, emission slit, integration time and increment were determined to get optimal spectra for each compound respectively, depending on the sample concentration and spectrometer used.

Series [2] concerns unprenylated Rap1A (uRap1A). The series is described as follows: Prenylation assay: Western blot for unprenylated Rap1A in J774.2 macrophages. Type of series: cell-based, mouse. Conditions: 10 or 100 μM, 24 h, FIG. 5A-C. As for the experimental part: To determine the effect of fluorescent BP probes on protein prenylation, J774.2 mouse macrophages were plated out at 2×10^5 cells/mL in 24-well plates and left to adhere overnight. Cells were then treated with 10 or 100 μM of fluorescent analogues of RIS, dRIS, and ZOL, the respective native BP, or vehicle, for 24 h. Cells were lysed in radioimmunoprecipitation buffer, and proteins were separated by sodium dodecyl sulfate polyacrylamide gel electrophoresis and transferred to polyvinyl difluoride membranes by western blotting. Membranes were then incubated with antibodies to the unprenylated form of Rap1A (uRap1A) and the housekeeping protein β-actin, which were detected by incubation with fluorescently-labeled secondary antibodies and scanning of membranes on a LI-COR Infrared Imager. Results shown are representative of 2 independent experiments. The ratio between abundance of unprenylated RaplA and β-actin is indicated for each sample below the blots in FIG. 5.
In general terms: Immunoblotting shows a protein as a band on a membrane.

For series [3] the following is noted: assumed the same as the corresponding fluorescent dye, cited from earlier work.

Regarding “1-(3-(3-carboxy-4-(6-hydroxy-3-oxo-3H-xanthen-9-yl)benzamido)-2-hydroxypropyl)-3-(2-hydroxy-2,2-diphosphonoethyl)pyridin-1-ium [Compound 5-FAM-RIS]”, in series [1], the “Maximum absorption wavelength (λmax (abs), nm)” value (shortened to “Maximum absorption wavelength”) stood at 493 nm and the “Maximum emission wavelength (λmax (em), nm)” value (“Maximum emission wavelength” for short) was found to be 521 nm. Also, the “accumulation of unprenylated Rap1A (anti-prenylation activity)” value in series [2] is recorded as “clearly detectable”. The Extinction coefficient in series [3] (pH 7.2, 0.1M phosphate buffer) was 73,000 (pH 7.2) M^−1cm^−1.
Take “1-(3-(4-carboxy-3-(6-hydroxy-3-oxo-3H-xanthen-9-yl)benzamido)-2-hydroxypropyl)-3-(2-hydroxy-2,2-diphosphonoethyl)pyridin-1-ium [Compound 6-FAM-RIS]”: in series [1], the “Maximum absorption wavelength” value is recorded as 493 nm and the “Maximum emission wavelength” value came out at 517 nm. In addition, the “accumulation of unprenylated Rap1A (anti-prenylation activity)” value in series [2] is “clearly detectable”. The Extinction coefficient in series [3] (pH 7.2, 0.1M phosphate buffer) is listed as 73,000 (pH 7.2) M^−1cm^−1.
Consider “2-(5-(3-(6-((2-hydroxy-3-(1-(2-hydroxy-2,2-diphosphonoethyl)-1H-imidazol-3-ium-3-yl)propyl)amino)-6-oxohexyl)-3-methyl-5-sulfo-1-(3-sulfopropyl)indolin-2-ylidene)penta-1,3-dien-1-yl)-3,3-dimethyl-5-sulfo-1-(3-sulfopropyl)-3H-indol-1-ium [AF647-ZOL]”, for which, in series [1], the “Maximum absorption wavelength” value was determined as 648.5 nm and the “Maximum emission wavelength” value amounted to 666 nm. For the same compound, the Extinction coefficient in series [3] (pH 7.0, 0.1M phosphate buffer) is listed as 240,000 (pH 7.0) M^−1cm^−1.
In the case of “16-[2-carboxy-4-({3-[4-(2-carboxy-2-hydroxy-2-phosphonoethyl)pyridin-1-ium-1-yl]-2-hydroxypropyl}carbamoyl)phenyl]-3-oxa-9λ^5,23-diazaheptacyclo[17.7.1.1^5,9.0^2,17.0^4,15.0^23,27.0^13,28]octacosa-1(27),2(17),4,9(28), 13,15,18-heptaen-9-ylium [5(6)-ROX-RISPC]”, in series [1], the “Maximum absorption wavelength” value was 579 nm and the “Maximum emission wavelength” value is on record as 606 nm. The Extinction coefficient in series [3] (pH 8.0, 0.1M phosphate buffer) was 72,000 (pH 8.0) M^−1cm^−1.
As for `CCN(CC)c1ccc2c(-c3ccc(S(=O)(=O)NCCCCCC(=O)NCC(O)C[n+]4cccc(CC(O)(P(=O)(O)O)P(=O)(O)O)c4)cc3S(=O)(=O)O)c3ccc(=[N+](CC)CC)cc-3oc2c1` (centres unmarked) [5(6)-RhR-RIS, 1-{3-[6-({4-[6-(diethylamino)-3-(diethylimino)-3H-xanthen-9-yl]-3-sulfobenzene}sulfonamido)hexanamido]-2-hydroxypropyl}-3-(2-hydroxy-2,2-diphosphonoethyl)pyridinium], in series [1], the “Maximum absorption wavelength” value was 567.5 nm and the “Maximum emission wavelength” value was found to be 589 nm. Also, in series [3] (pH 7.5, 0.1M phosphate buffer), the Extinction coefficient is reported as 114,850 (pH 7.5) M^−1cm^−1.
As for `CCN(CC)c1ccc2c(-c3ccc(S(=O)(=O)NCCCCCC(=O)NCC(O)C[n+]4cccc(CC(O)(C(=O)O)P(=O)(O)O)c4)cc3S(=O)(=O)O)c3ccc(=[N+](CC)CC)cc-3oc2c1` (centres unmarked) [5(6)-RhR-RISPC, 3-(2-carboxy-2-hydroxy-2-phosphonoethyl)-1-{3-[6-({4-[6-(diethylamino)-3-(diethylimino)-3H-xanthen-9-yl]-3-sulfobenzene}sulfonamido)hexanamido]-2-hydroxypropyl}pyridinium], in series [1], the “Maximum absorption wavelength” value is recorded as 568 nm and the “Maximum emission wavelength” value is 589 nm. Moreover, the Extinction coefficient in series [3] (pH 7.5, 0.1M phosphate buffer) is 114,850 (pH 7.5) M^−1cm^−1.
As for `CCN(CC)c1ccc2c(-c3ccc(S(=O)(=O)NCCCCCC(=O)NCC(O)C[n+]4cccc(CC(P(=O)(O)O)P(=O)(O)O)c4)cc3S(=O)(=O)O)c3ccc(=[N+](CC)CC)cc-3oc2c1` (centres unmarked) [5(6)-RhR-dRIS, 1-{3-[6-({4-[6-(diethylamino)-3-(diethylimino)-3H-xanthen-9-yl]-3-sulfobenzene}sulfonamido)hexanamido]-2-hydroxypropyl}-3-(2,2-diphosphonoethyl)pyridin-1-ium], in series [1], the “Maximum absorption wavelength” value is given as 567.5 nm and the “Maximum emission wavelength” value is listed as 589 nm. Also, the Extinction coefficient in series [3] (pH 7.5, 0.1M phosphate buffer) was 114,850 (pH 7.5) M^−1cm^−1.
As to `CC1(C)C(C=CC=CC=C2N(CCCS(=O)(=O)O)c3ccc(S(=O)(=O)O)cc3C2(C)CCCCCC(=O)NCC(O)C[n+]2cccc(CC(O)(C(=O)O)P(=O)(O)O)c2)=[N+](CCCS(=O)(=O)O)c2ccc(S(=O)(=O)O)cc21` (centres unmarked) [AF647-RISPC, 2-(5-(3-(6-((3-(3-(2-carboxy-2-hydroxy-2-phosphonoethyl)pyridin-1-ium-1-yl)-2-hydroxypropyl)amino)-6-oxohexyl)-3-methyl-5-sulfo-1-(3-sulfopropyl)indolin-2-ylidene)penta-1,3-dien-1-yl)-3,3-dimethyl-5-sulfo-1-(3-sulfopropyl)-3H-indol-1-ium], in series [1], the “Maximum absorption wavelength” value worked out at 648 nm and the “Maximum emission wavelength” value was determined as 666 nm. For the same compound, the Extinction coefficient in series [3] (pH 7.0, 0.1M phosphate buffer) is reported as 240,000 (pH 7.0) M^−1cm^−1.
In the case of `O=C(NCC(O)C[n+]1cc(CC(O)(P(=O)(O)O)P(=O)(O)O)n2ccccc21)c1ccc(-c2c3ccc(=O)cc-3oc3cc(O)ccc23)c(C(=O)O)c1` (centres unmarked) [Compound 5-FAM-MIN, 1-(3-(3-carboxy-4-(6-hydroxy-3-oxo-3H-xanthen-9-yl)benzamido)-2-hydroxypropyl)-3-(2-hydroxy-2,2-diphosphonoethyl)imidazo[1,2-a]pyridin-1-ium], in series [1], the “Maximum absorption wavelength” value came to 493 nm and the “Maximum emission wavelength” value is listed as 522 nm. Moreover, the Extinction coefficient in series [3] (pH 7.2, 0.1M phosphate buffer) is reported as 73,000 (pH 7.2) M^−1cm^−1.
On to `O=C(NCC(O)C[n+]1cc(CC(O)(C(=O)O)P(=O)(O)O)n2ccccc21)c1ccc(-c2c3ccc(=O)cc-3oc3cc(O)ccc23)c(C(=O)O)c1` (centres unmarked) [Compound 5-FAM-MINPC, 3-(2-carboxy-2-hydroxy-2-phosphonoethyl)-1-(3-(3-carboxy-4-(6-hydroxy-3-oxo-3H-xanthen-9-yl)benzamido)-2-hydroxypropyl)imidazo[1,2-a]pyridin-1-ium], for which, in series [1], the “Maximum absorption wavelength” value stood at 493 nm and the “Maximum emission wavelength” value stood at 522 nm. Besides, the Extinction coefficient in series [3] (pH 7.2, 0.1M phosphate buffer) is 73,000 (pH 7.2) M^−1cm^−1.
Consider `O=C(NCC(O)C[n+]1cc(CC(O)(P(=O)(O)O)P(=O)(O)O)n2ccccc21)c1ccc(C(=O)O)c(-c2c3ccc(=O)cc-3oc3cc(O)ccc23)c1` (centres unmarked) [Compound 6-FAM-MIN, 1-(3-(4-carboxy-3-(6-hydroxy-3-oxo-3H-xanthen-9-yl)benzamido)-2-hydroxypropyl)-3-(2-hydroxy-2,2-diphosphonoethyl)imidazo[1,2-a]pyridin-1-ium], for which, in series [1], the “Maximum absorption wavelength” value is 493 nm and the “Maximum emission wavelength” value was 518 nm. The Extinction coefficient in series [3] (pH 7.2, 0.1M phosphate buffer) is 73,000 (pH 7.2) M^−1cm^−1.
Take `O=C(NCC(O)C[n+]1cc(CC(O)(C(=O)O)P(=O)(O)O)n2ccccc21)c1ccc(C(=O)O)c(-c2c3ccc(=O)cc-3oc3cc(O)ccc23)c1` (centres unmarked) [Compound 6-FAM-MINPC, 3-(2-carboxy-2-hydroxy-2-phosphonoethyl)-1-(3-(4-carboxy-3-(6-hydroxy-3-oxo-3H-xanthen-9-yl)benzamido)-2-hydroxypropyl)imidazo[1,2-a]pyridin-1-ium]: in series [1], the “Maximum absorption wavelength” value is given as 493 nm and the “Maximum emission wavelength” value was 517 nm. The Extinction coefficient in series [3] (pH 7.2, 0.1M phosphate buffer) is on record as 73,000 (pH 7.2) M^−1cm^−1.
As for `CN1/C(=C/C=C/C=C/C2=[N+](CCCCCC(=O)NCC(O)C[n+]3ccn(CC(O)(P(=O)(O)O)P(=O)(O)O)c3)c3ccc(S(=O)(=O)[O-])cc3C2(C)C)C(C)(C)c2cc(S(=O)(=O)[O-])ccc21` (centres unmarked) [Sulfo-Cy5-ZOL, 1-(6-((2-hydroxy-3-(1-(2-hydroxy-2,2-diphosphonoethyl)-1H-imidazol-3-ium-3-yl)propyl)amino)-6-oxohexyl)-3,3-dimethyl-2-((1E,3E,5E)-5-(1,3,3-trimethyl-5-sulfonatoindolin-2-ylidene)penta-1,3-dien-1-yl)-3H-indol-1-ium-5-sulfonate], in series [1], the “Maximum absorption wavelength” value is 644 nm and the “Maximum emission wavelength” value is recorded as 663 nm. Also, the Extinction coefficient in series [3] (1x PBS, pH 7.4) was 271,000 (1x PBS, pH 7.4) M^−1cm^−1.
